Source: US20190263799A1, “1H-IMIDAZO[4,5-B]PYRIDINYL AND 2-OXO-2,3-DIHYDRO-1H-IMIDAZO[4,5-B]PYRIDINYL HETEROCYCLIC BET BROMODOMAIN INHIBITORS” (ZENITH EPIGENETICS LTD., priority 2015, published 2019)
Structures can show the parent of a compound that is named as a salt. Where two headings read alike, the source gives them in different places.

What was measured:
BRD4(1) = molecular target: T1, BRD4(1) (Homo sapiens, UniProt O60885); experiment: Inhibition of tetra-acetylated histone H4 binding to individual BET bromodomains (AlphaScreen); conditions: His-tagged BRD4(1) 20 nM, biotinylated tetra-acetylated histone H4 peptide, 30 min incubation; read-out: FRET activity BRD4(1)
T1 construct: N-terminally His-tagged bromodomains (BRD4(1) at 20 nM and BRD4(2) at 100 nM); made in house; host or cells: E. coli BL21(DE3)
Experimental: Proteins were cloned and overexpressed with a N-terminal 6×His tag, then purified by nickel affinity followed by size exclusion chromatography. Briefly, E. coli BL21(DE3) cells were transformed with a recombinant expression vector encoding N-terminally Nickel affinity tagged bromodomains from Brd2, Brd3, Brd4. Cell cultures were incubated at 37° C. with shaking to the appropriate density and induced overnight with IPTG. The supernatant of lysed cells was loaded onto Ni-IDA column for purification. Eluted protein was pooled, concentrated and further purified by size exclusion chromatography. Fractions representing monomeric protein were pooled, concentrated, aliquoted, and frozen at −80° C. for use in subsequent experiments.
Binding of tetra-acetylated histone H4 peptide (Millipore) and BET bromodomains was confirmed by Amplified Luminescent Proximity Homogenous Assay (AlphaScreen). N-terminally His-tagged bromodomains (BRD4(1) at 20 nM and BRD4(2) at 100 nM) and biotinylated tetra-acetylated histone H4 (10-25 nM) were incubated in the presence of nickel chelate acceptor beads and streptavidin donor beads (PerkinAlmer, 6760000K) added to a final concentration of 2 μg/mL under green light in a white 96 well microtiter plate (Greiner). For inhibition assays, serially diluted compounds were added to the reaction mixtures in a 0.1% final concentrations of DMSO. Final buffer concentrations were 50 mM HEPES, 100 mM NaCl and 0.1% BSA buffer, pH 7.4 and optimized to 30 min incubation time. Assay plates were read at 570 nm on a Synergy H4 Plate Reader (Biotek). IC50 values were determined from a dose response curve.

MV4-11 cells [1] = experiment: Washout proliferation: durability of proliferation inhibition in MV4-11 cells; format: cell-based; conditions: Homo sapiens, MV4-11, read-out: IC50 of inhibition of proliferation after 72 hours of compound removal
Experimental: FIG. 1 depicts inhibition of proliferation. […] MV4-11 cells were treated for 16 hours after which compounds were removed, cells washed 3 times with media, replaced with media and proliferation was measured at 72 h post washout.
MV4-11 cells (CRL-9591) were plated at a density of 5×10^4 cells per well in 96 well flat bottom plates and treated with increasing concentrations of compounds or DMSO (0.1%) in IMDM media containing 10% FBS and penicillin/streptomycin. Triplicate wells were used for each concentration and a well containing only media was used as a control. Plates were incubated at 37° C., 5% CO2 for 16 h after which the compounds were removed, replaced with media, and proliferation was measured at 72 hours post washout by adding 100 μL of the Cell Titer Fluor 96 Cell Viability Assay (Promega). After the incubation for 45 min at 37° C. with 5% CO2 fluorescence is read on the Synergy plate reader set at 380-400 nm Ex/505 nm. Percentage of cell viability to DMSO-treated cells was calculated after correcting for background by subtracting the blank well's signal. IC50 values were calculated using the GraphPad Prism software from the dose-dependent inhibition of proliferation.

BCL2 = experiment: Durability of BCL2 expression inhibition after washout in MV4-11 cells; format: cell-based; conditions: Homo sapiens, MV4-11, read-out: IC50 of BCL2 inhibition at 5 hours post washout
Experimental: (§1) MV4-11 cells were treated for 3 hours after which compounds were removed, cells washed with media 3 times, replaced with media; harvest was performed 5 hours post washout and the expression of MYC and BCL2 was determined.
(§2) MV4-11 cells (CRL-9591) were plated at a density of 2.5×10^4 cells per well in 96 well U-bottom plates and treated with increasing concentrations of test compound or DMSO (0.1%) in IMDM media containing 10% FBS and penicillin/streptomycin, and incubated for […] 37° C. after which the compounds are removed, replaced with media and cells were harvested at 5 hours post washout. Triplicate wells were used for each concentration. Cells were pelleted by centrifugation and harvested using the mRNA Catcher PLUS kit according to manufacturer's instructions. The eluted mRNA isolated was then used in a one-step quantitative real-time PCR reaction, using components of the RNA UltraSense™ One-Step Kit (Life Technologies) together with Applied Biosystems TaqMan® primer-probes for cMYC and Cyclophilin. Real-time PCR plates were run on a ViiA™7 real time PCR machine (Applied Biosystems), data was analyzed, normalizing the Ct values for MYC and BCL2 to an internal control, prior to determining the fold expression of each sample, relative to the control.

MYC = experiment: Durability of MYC expression inhibition after washout in MV4-11 cells; format: cell-based; conditions: Homo sapiens, MV4-11, read-out: IC50 of sustained MYC inhibition at 5 h post washout
Experimental: as §1, §2

cMYC = experiment: Inhibition of cMYC expression in cancer cell lines (MV4-11, real-time PCR); format: cell-based; conditions: Homo sapiens, read-out: Myc activity
Experimental: MV4-11 cells (CRL-9591) were plated at a density of 2.5×10^4 cells per well in 96 well U-bottom plates and treated with increasing concentrations of test compound or DMSO (0.1%) in IMDM media containing 10% FBS and penicillin/streptomycin, and incubated for 3 h at 37° C. Triplicate wells were used for each concentration. Cells were pelleted by centrifugation and harvested using the mRNA Catcher PLUS kit according to manufacturer's instructions. The eluted mRNA isolated was then used in a one-step quantitative real-time PCR reaction, using components of the RNA UltraSense™ One-Step Kit (Life Technologies) together with Applied Biosystems TaqMan® primer-probes for cMYC and Cyclophilin. Real-time PCR plates were run on a ViiA™7 real time PCR machine (Applied Biosystems), data were analyzed, normalizing the Ct values for cMYC to an internal control, prior to determining the fold expression of each sample, relative to the control.

MV4-11 cells [2] = experiment: Inhibition of cell proliferation in cancer cell lines (MV4-11, CellTiter Aqueous One); format: cell-based; conditions: Homo sapiens, read-out: Proliferation activity
Experimental: MV4-11 cells (CRL-9591) were plated at a density of 5×10^4 cells per well in 96 well flat bottom plates and treated with increasing concentrations of test compound or DMSO (0.1%) in IMDM media containing 10% FBS and penicillin/streptomycin. Triplicate wells were used for each concentration and a well containing only media was used as a control. Plates were incubated at 37° C., 5% CO2 for 72 h before adding 20 μL of the CellTiter Aqueous One Solution (Promega) to each well and incubating at 37° C., 5% CO2 for an additional 3-4 h. The absorbance was read at 490 nm in a spectrophotometer and the percentage of cell titer relative to DMSO-treated cells was calculated after correcting for background by subtracting the blank well's signal. IC50 values were calculated using the GraphPad Prism software.

[3] = MV4-11 cells, 3 h incubation, cMYC mRNA

| SMILES | IC50 (BRD4(1)) | IC50 (MV4-11 cells [1]) | IC50 (BCL2) | IC50 (MYC) | IC50 (cMYC; MV4-11, 3 h) | IC50 (MV4-11 cells [2]; MV4-11, 72 h) | IC50 (cMYC; [3]) | IC50 (MV4-11 cells [2]; MV4-11 cells, 72 h incubation) |
| --- | --- | --- | --- | --- | --- | --- | --- | --- |
| C=CC(=O)N(C)c1cnc2nc(N3CCCC3)n(Cc3ccccc3)c2c1 [Example 15, N-(1-Benzyl-2-(pyrrolidin-1-yl)-1H-imidazo[4,5-b]pyridin-6-yl)-N-methylacrylamide] | ≤ 300 nM | 5980 nM | 7900 nM | 23000 nM | 300 to 3000 nM | 300 to 3000 nM |  |  |
| CN(C)C(=O)N(C)c1cnc2nc(N3CCCC3)n(Cc3ccccc3)c2c1 [Example 35, 1-(1-Benzyl-2-(pyrrolidin-1-yl)-1H-imidazo[4,5-b]pyridin-6-yl)-1,3,3-trimethylurea] | 300 to 3000 nM |  |  |  | 3000 to 30000 nM | 3000 to 30000 nM |  |  |
| COC(=O)N(C)c1cnc2nc(N3CCCC3)n(Cc3ccccc3)c2c1 [Example 30, Methyl (1-benzyl-2-(pyrrolidin-1-yl)-1H-imidazo[4,5-b]pyridin-6-yl)(methyl) carbamate] | ≤ 300 nM |  |  |  | 300 to 3000 nM | 300 to 3000 nM |  |  |
| C=CC(=O)N(C)c1cnc2nc(N3C4CCC3CC(O)C4)n(Cc3ccccc3)c2c1 (stereo not drawn) [Example 24, N-(1-Benzyl-2-(3-hydroxy-8-azabicyclo[3.2.1]octan-8-yl)-1H-imidazo[4,5-b]pyridin-6-yl)-N-methylacrylamide] | ≤ 300 nM |  |  |  | 300 to 3000 nM | 3000 to 30000 nM |  |  |
| C=CC(=O)N(C)c1cnc2nc(N3CC=CC3)n(Cc3ccccc3)c2c1 [Example 22, N-(1-Benzyl-2-(2,5-dihydro-1H-pyrrol-1-yl)-1H-imidazo[4,5-b]pyridin-6-yl)-N-methylacrylamide hydrochloride] | ≤ 300 nM |  |  |  |  |  | 300 to 3000 nM | 300 to 3000 nM |
| C=CC(=O)N(C)c1cnc2nc(N3CC[C@H](NC(C)=O)C3)n(Cc3ccccc3)c2c1 [Example 43, (S)—N-(2-(3-Acetamidopyrrolidin-1-yl)-1-benzyl-1H-imidazo[4,5-b]pyridin-6-yl)-N-methylacrylamide] | ≤ 300 nM |  |  |  |  |  | 3000 to 30000 nM | 3000 to 30000 nM |
| CC(C)OC(=O)N(C)c1cnc2nc(N3CCCC3)n(Cc3ccccc3)c2c1 [Example 37, Isopropyl (1-benzyl-2-(pyrrolidin-1-yl)-1H-imidazo[4,5-b]pyridin-6-yl)(methyl)carbamate] | 300 to 3000 nM |  |  |  | 300 to 3000 nM | 3000 to 30000 nM |  |  |
| C=CC(=O)N(C)c1cnc2c(c1)n(Cc1ccccc1)c(=O)n2C [Example 12, N-(1-Benzyl-3-methyl-2-oxo-2,3-dihydro-1H-imidazo[4,5-b]pyridin-6-yl)-N-methylacrylamide] | ≤ 300 nM |  |  |  |  |  | 3000 to 30000 nM | 3000 to 30000 nM |
| CC(=O)N(C)c1cnc2nc(C)n(Cc3ccccc3)c2c1 [Example 3, N-(1-Benzyl-2-methyl-1H-imidazo[4,5-b]pyridin-6-yl)—N-methylacetamide] | ≤ 300 nM |  |  |  | 3000 to 30000 nM | 3000 to 30000 nM |  |  |
| C[C@H](O)C(=O)N(C)c1cnc2nc(N3CCCC3)n(Cc3ccccc3)c2c1 [Example 34, (S)—N-(1-Benzyl-2-(pyrrolidin-1-yl)-1H-imidazo[4,5-b]pyridin-6-yl)-2-hydroxy-N-methylpropanamide] | ≤ 300 nM |  |  |  |  |  | 300 to 3000 nM | 300 to 3000 nM |
| C=CC(=O)N(C)c1cnc2nc(N3CC(O)C3)n(Cc3ccccc3)c2c1 [Example 42, N-(1-Benzyl-2-(3-hydroxyazetidin-1-yl)-1H-imidazo[4,5-b]pyridin-6-yl)-N-methylacrylamide] | ≤ 300 nM |  |  |  | 3000 to 30000 nM | 3000 to 30000 nM |  |  |
| C=CC(=O)N(C)c1cnc2nc(N(C)C)n(Cc3ccccc3)c2c1 [Example 19, N-(1-Benzyl-2-(dimethylamino)-1H-imidazo[4,5-b]pyridin-6-yl)-N-methylacrylamide] | ≤ 300 nM |  |  |  |  |  | 300 to 3000 nM | 3000 to 30000 nM |
| C=CC(=O)N(C)c1cnc2nc(NC3CCN(C)CC3)n(Cc3ccccc3)c2c1 [Example 40, N-(1-Benzyl-2-((1-methylpiperidin-4-yl)amino)-1H-imidazo[4,5-b]pyridin-6-yl)-N-methylacrylamide] | ≤ 300 nM |  |  |  | 3000 to 30000 nM | 3000 to 30000 nM |  |  |
| C=CC(=O)N(C)c1cnc2nc(N3CCCCC3)n(Cc3ccccc3)c2c1 [Example 23, N-(1-Benzyl-2-(piperidin-1-yl)-1H-imidazo[4,5-b]pyridin-6-yl)-N methylacrylamide] | 300 to 3000 nM |  |  |  |  |  | 300 to 3000 nM | 3000 to 30000 nM |
| CN(C(=O)C1CC1)c1cnc2nc(N3CCCC3)n(Cc3ccccc3)c2c1 [Example 29, N-(1-Benzyl-2-(pyrrolidin-1-yl)-1H-imidazo[4,5-b]pyridin-6-yl)-N-methylcyclopropanecarboxamide] | ≤ 300 nM |  |  |  |  |  | 300 to 3000 nM | 300 to 3000 nM |
| C=CC(=O)N(C)c1cnc2nc(N3CC(N(C)C)C3)n(Cc3ccccc3)c2c1 [Example 47, N-(1-Benzyl-2-(3-(dimethylamino)azetidin-1-yl)-1H-imidazo[4,5-b]pyridin-6-yl)-N-methylacrylamide] | ≤ 300 nM |  |  |  |  |  | 300 to 3000 nM | 3000 to 30000 nM |
| C=CC(=O)N(C)c1cnc2nc(C)n(Cc3ccccc3)c2c1 [Example 4, N-(1-Benzyl-2-methyl-1H-imidazo[4,5-b]pyridin-6-yl)-N-methylacrylamide] | ≤ 300 nM |  |  |  |  |  | 300 to 3000 nM | 3000 to 30000 nM |
| CN(C(=O)CO)c1cnc2nc(N3CCCC3)n(Cc3ccccc3)c2c1 [Example 32, N-(1-Benzyl-2-(pyrrolidin-1-yl)-1H-imidazo[4,5-b]pyridin-6-yl)-2-hydroxy-N-methylacetamide] | 300 to 3000 nM |  |  |  |  |  | 3000 to 30000 nM | 3000 to 30000 nM |
